US20090312406A1, “COUMARIN COMPOUNDS AND THEIR USE FOR TREATING VIRAL INFECTION” (priority 2008, published 2009)
Where two headings read alike, the source gives them in different places.

Columns and labels:
HIV-1 = assay: Inhibition of HIV-1 replication in peripheral blood mononuclear cells, viral RNA by real-time PCR; settings: Human immunodeficiency virus 1, PBMC
Description: Equal amounts of wild-type and mutant viruses were used to infect 5×10^4 peripheral blood mononuclear cells (PBMC) in 1.5 mL medium containing DMSO or various concentrations of a test compound. A half-milliliter of the culture medium was collected from each culture at days 3, 5, and 7. Viral RNA was extracted from the collected culture supernatants and the viral titers (copies/mL) were determined by real-time PCR. The percentage of inhibition was calculated as [100−(VD/VC)]×100%, where VD and VC refer to the virus titers in the presence and absence of the test compound, respectively.

Human rhinovirus 2 = assay: In vitro human rhinovirus 2 neutralization assay, cytopathic effect on RD cells; type: cell-based; settings: Rhinovirus A, RD
Description: (§1) This assay measured the ability of a test compound to inhibit the cytopathic effect induced by a picornavirus (EV71, Coxsackie Virus B3, or human rhinovirus 2) on RD cells. The method used for this assay is described in Chang et al., J Med Chem, 2005, 48(10), 3522-3535. More specifically, 96-well tissue culture plates were seeded with 200 μL of RD cells at a concentration of 3×10^5 cells/mL in DMEM with 10% FBS. The plates were incubated for 24-30 h at 37° C. and were used at about 90% confluency. Virus (100 TCID50) mixed with different concentrations of a test compound was added to the cells and incubated at 37° C. for 1 h. After adsorption, the infected cell plates were overlaid with 50 μL of DMEM plus 5% FBS and 2% DMSO. The plate was wrapped in Parafilm and incubated at 37° C. for 64 h. At the end of incubation, the plates were fixed by the addition of 100 μL of 0.5% glutaraldehyde for 1 h at room temperature. After the removal of glutaraldehyde, the plates were stained with 0.1% crystal violet for 15 min at room temperature. The plates were washed and dried, and the density of the well was measured at 570 nm. The concentration required for a test compound to reduce the virus-induced cytopathic effect (CPE) by 50% relative to the virus control is expressed as IC50.

Enterovirus 71 (4643) = assay: In vitro EV 71 neutralization assay, cytopathic effect on RD cells; type: cell-based; settings: Enterovirus A, RD
Description: as §1

Influenza B/TW/710/05 = assay: Anti-influenza CPE neutralization test on MDCK cells; type: cell-based; settings: Influenza B virus, Influenza B/TW/710/05, CPE
Description: (§2) Anti-influenza activities of the coumarin compounds were evaluated by measuring the ability of a test compound to inhibit the cytopathic effect induced by an influenza virus on MDCK cells. The 96-well tissue culture plates were seeded with 200 μL of MDCK cells at a concentration of 1.1×10^5 cells/mL in DMEM with 10% fetal bovine serum (FBS). The plates were incubated for 24-30 h at 37° C. and were used at about 90% confluency. Influenza A/WSN/33 (H1N1) virus (100 TCID50) was added to the cells and incubated at 35° C. for 1 h. After adsorption, the infected cell plates were overlaid with 50 μL of DMEM plus 2% FBS and a test compound with different concentrations. The plate was incubated at 35° C. for 72 h. At the end of incubation, the plates were fixed by the addition of 100 μL of 4% formaldehyde for 1 h at room temperature. After the removal of formaldehyde, the plates were stained with 0.1% crystal violet for 15 min at room temperature. The plates were washed and dried, and the density of the well was measured at 570 nm. The concentration required for a test compound to reduce the virus-induced cytopathic effect (CPE) by 50% relative to the virus control was expressed as IC50.
(§3) Compounds 1 and 95 were also tested on various influenza virus strains. Amantadine or Relenza was also tested for comparison. IC50 is defined as the concentration required for a test compound to reduce the virus-induced cytopathic effect (CPE) by 50% relative to the virus control.

[1] = system: Influenza A/Udorn/72 (H3N2); assay: as above; type: cell-based; settings: Influenza A virus
Description: as §2, §3

[2] = system: Influenza A/TW/785/05 (H1N1); assay: as above; type: cell-based; settings: Influenza A virus
Description: as §2, §3

[3] = system: Influenza A/TW/83/05 (H3N2); assay: as above; type: cell-based; settings: Influenza A virus
Description: as §2, §3

Influenza B/TW/70325/05 = assay: as above; type: cell-based; settings: Influenza B virus, Influenza B/TW/70325/05, CPE
Description: as §2, §3

Influenza B/TW/99/07 = assay: as above; type: cell-based; settings: Influenza B virus, Influenza B/TW/99/07, CPE
Description: as §2, §3

Coxsackie B virus 3 = assay: In vitro Coxsackie Virus B3 neutralization assay, cytopathic effect on RD cells; type: cell-based; settings: Coxsackie B virus 3, RD cells, CPE
Description: as §1

[4] = system: Influenza A/WSN/33 (H1N1) virus; assay: In vitro anti-influenza virus assay (neutralization test), cytopathic effect on MDCK cells; type: cell-based
Description: as §2, §3

[5] = Cytotoxicity (CC50) of the compounds tested in the anti-HSV assay; type: cell-based; settings: African green monkey, Vero cells; Table 5; read-out: CC50 (μM), 50% cytotoxicity concentration
[6] = system: herpes simplex virus type 1; assay: In vitro assessment of anti-HSV activity, plaque reduction assay in Vero cells (Example 8); type: cell-based; settings: for SI, selectivity index = CC50/EC50: CC50/EC50, HSV-1; for EC50: Human alphaherpesvirus 1, herpes simplex virus type 1, Vero cells, plaque reduction, 72 h, read-out: EC50 (μM), 50% effective concentration
Description: Anti-HSV activities of compounds described herein were evaluated by performing a plaque reduction assay using monolayer cultures of Vero cells in 24-well culture plates. A cell monolayer was infected with herpes simplex virus type 1 (50 pfu/well) and incubated at 37° C. with 5% CO2 for 1 h. The infected cell monolayer was then washed three times with PBS and overlaid with a solution (maintenance medium containing 1% methylcellulose and various concentrations of a test compound). After 72 h of incubation at 37° C., the cell monolayer was fixed with 10% formalin and stained with 1% crystal violet. […] The minimal concentration of a compound required to reduce 50% of plaque numbers (EC50) was calculated by regression analysis of the dose-response curves generated from the plaque assay.

[7] = system: Influenza A/TW/141/04 (H1N1); assay: Anti-influenza CPE neutralization test on MDCK cells; type: cell-based; settings: Influenza A virus
Description: as §2, §3

[8] = system: Influenza A/TW/3446/04 (H3N2); assay: as above; type: cell-based; settings: Influenza A virus
Description: as §2, §3

[9] = 72 h, read-out: Inhibition (%) Day 3
[10] = 120 h, read-out: Inhibition (%) Day 5
[11] = 168 h, read-out: Inhibition (%) Day 7
[12] = MDCK, CPE, Table 2, read-out: IC50
[13] = MDCK cells, 72 h, lower bound (10 nM), upper in μM, read-out: IC50 (concentration reducing virus-induced cytopathic effect by 50%)
[14] = MDCK cells, 72 h, ranges given, read-out: IC50 (concentration reducing virus-induced cytopathic effect by 50%)

Cc1cn([C@H]2C[C@H](N=[N+]=[N-])[C@@H](CO)O2)c(=O)[nH]c1=O [AZT, zidovudine, reference compound]
inhibition at 0.05 µM (HIV-1; [9]): 6% | inhibition at 0.05 µM (HIV-1; [10]): 71% | inhibition at 0.05 µM (HIV-1; [11]): 88%

NC12CC3CC(CC(C3)C1)C2 [Amantadine]
IC50 (Human rhinovirus 2): > 25000 nM | IC50 (Enterovirus 71 (4643)): > 25000 nM | IC50 (Influenza B/TW/710/05): > 25000 nM | IC50 [1]: 980 ± 147 nM | IC50 [2]: 382 ± 238 nM | IC50 [3]: > 25000 nM | IC50 (Influenza B/TW/70325/05): > 25000 nM | IC50 (Influenza B/TW/99/07): > 25000 nM | IC50 (Coxsackie B virus 3): > 25000 nM | IC50 [4, 12]: > 25000 nM

Cc1cc(=O)oc2c1ccc1oc(C(=O)c3cccc(O)c3)c(-c3ccccc3)c12 [Compound 33]
CC50 [5]: 93.4 µM | inhibition at 0.1 µM (HIV-1; [9]): 5% | inhibition at 0.1 µM (HIV-1; [10]): 98% | inhibition at 0.1 µM (HIV-1; [11]): 99.5% | SI, selectivity index = CC50/EC50 [6]: 235.972 | EC50 [6]: 0.396 µM | IC50 [4, 13]: 10 to 999 nM

Cc1cc(=O)oc2c1ccc1oc(C(=O)c3cccs3)c(-c3ccccc3)c12 [Compound 95]
IC50 (Influenza B/TW/710/05): 90 ± 10 nM | IC50 [7]: 90 ± 10 nM | IC50 (Influenza B/TW/70325/05): 90 ± 10 nM | IC50 [8]: 150 ± 10 nM | IC50 (Influenza B/TW/99/07): 40 ± 10 nM | CC50 [5]: > 100 µM | inhibition at 0.1 µM (HIV-1; [9]): 42% | inhibition at 0.1 µM (HIV-1; [10]): 89% | inhibition at 0.1 µM (HIV-1; [11]): 99% | SI, selectivity index = CC50/EC50 [6]: >1666.666 | EC50 [6]: 0.06 µM | IC50 [4, 13]: 10 to 999 nM | IC50 [4, 12]: 70 ± 10 nM

Cc1cc(=O)oc2c1ccc1oc(C(=O)c3ccccc3)c(-c3ccc(F)cc3)c12 [Compound 134]
CC50 [5]: > 100 µM | inhibition at 0.1 µM (HIV-1; [9]): 61% | inhibition at 0.1 µM (HIV-1; [10]): 91% | inhibition at 0.1 µM (HIV-1; [11]): 96% | SI, selectivity index = CC50/EC50 [6]: >3095.975 | EC50 [6]: 0.0323 µM | IC50 [4, 13]: 10 to 999 nM

Cc1cc(=O)oc2c1ccc1oc(C(=O)c3ccccc3)c(-c3ccc(Br)cc3)c12 [Compound 140]
CC50 [5]: > 100 µM | inhibition at 0.1 µM (HIV-1; [9]): 19% | inhibition at 0.1 µM (HIV-1; [10]): 65% | inhibition at 0.1 µM (HIV-1; [11]): 93% | SI, selectivity index = CC50/EC50 [6]: >291.545 | EC50 [6]: 0.343 µM | IC50 [4, 13]: 10 to 999 nM

Cc1cccc(-c2c(C(=O)c3ccccc3)oc3ccc4c(C)cc(=O)oc4c23)c1 [Compound 141]
CC50 [5]: > 100 µM | inhibition at 0.1 µM (HIV-1; [9]): 19% | inhibition at 0.1 µM (HIV-1; [10]): 71% | inhibition at 0.1 µM (HIV-1; [11]): 97% | SI, selectivity index = CC50/EC50 [6]: >25641.03 | EC50 [6]: 0.0039 µM | IC50 [4, 13]: 10 to 999 nM

CC(=O)OCCCCCCOc1cccc(C(=O)c2oc3ccc4c(C)cc(=O)oc4c3c2-c2ccccc2)c1 [Compound 237]
IC50 [4, 13]: 10 to 999 nM

Cc1cc(=O)oc2c1ccc1oc(C(=O)c3ccccc3)c(-c3ccc(O)cc3)c12 [Compound 239]
IC50 [4, 14]: 1000 to 5900 nM

Cc1cc(=O)oc2c1ccc1oc(C(=O)c3cccc(OCCN4CCc5ccccc5C4)c3)c(-c3ccccc3)c12 [Compound 240]
IC50 [4, 14]: 1000 to 5900 nM

Cc1cc(=O)oc2c1ccc1oc(C(=O)c3cccc(OCCN4Cc5ccccc5C4)c3)c(-c3ccccc3)c12 [Compound 241]
IC50 [4, 14]: 1000 to 5900 nM

CCCCCCCCOc1cccc(C(=O)c2oc3ccc4c(C)cc(=O)oc4c3c2-c2ccccc2)c1 [Compound 243]
IC50 [4, 14]: 6000 to 25000 nM

COc1cccc(C(=O)c2oc3ccc4c(C)cc(=O)oc4c3c2-c2ccccc2F)c1 [Compound 245]
IC50 [4, 13]: 10 to 999 nM

COc1cccc(C(=O)c2oc3ccc4c(C)cc(=O)oc4c3c2-c2cccc(F)c2)c1 [Compound 246]
IC50 [4, 13]: 10 to 999 nM

COc1cccc(C(=O)c2oc3ccc4c(C)cc(=O)oc4c3c2-c2cccc(C)c2)c1 [Compound 247]
IC50 [4, 13]: 10 to 999 nM

COc1ccc(-c2c(C(=O)c3ccccc3)oc3ccc4c(C)cc(=O)oc4c23)cc1 [Compound 248]
IC50 [4, 14]: 6000 to 25000 nM

Cc1cc(=O)oc2c1ccc1oc(C(=O)c3cccc(OP(=O)(O)O)c3)c(-c3ccccc3)c12 [Compound 249]
IC50 [4, 14]: 1000 to 5900 nM

COc1cccc(C(=O)c2oc3ccc4c(C)cc(=O)oc4c3c2-c2ccc(Br)cc2)c1 [Compound 252]
IC50 [4, 13]: 10 to 999 nM

Cc1cc(=O)oc2c1ccc1oc(C(=O)c3cccs3)c(-c3ccc(Br)cc3)c12 [Compound 254]
IC50 [4, 14]: 1000 to 5900 nM

COc1cccc(C(=O)c2oc3ccc4c(C)cc(=O)oc4c3c2-c2cccc(Br)c2)c1 [Compound 256]
IC50 [4, 13]: 10 to 999 nM

Cc1cc(=O)oc2c1ccc1oc(C(=O)c3cccs3)c(-c3cccs3)c12 [Compound 257]
IC50 [4, 13]: 10 to 999 nM

Cc1cc(=O)oc2c1ccc1oc(C(=O)c3cccs3)c(-c3cccc(Br)c3)c12 [Compound 259]
IC50 [4, 13]: 10 to 999 nM

CCOc1cccc(C(=O)c2oc3ccc4c(C)cc(=O)oc4c3c2-c2cccc(Br)c2)c1 [Compound 260]
IC50 [4, 13]: 10 to 999 nM

CCCCOc1cccc(C(=O)c2oc3ccc4c(C)cc(=O)oc4c3c2-c2cccc(Br)c2)c1 [Compound 262]
IC50 [4, 13]: 10 to 999 nM

CCCCCOc1cccc(C(=O)c2oc3ccc4c(C)cc(=O)oc4c3c2-c2cccc(Br)c2)c1 [Compound 263]
IC50 [4, 14]: 1000 to 5900 nM
